Laboratory results from patent publication US11412737B2, “Mixtures of beflubutamid or optically enriched forms thereof with a second herbicide” (FMC Corporation, priority 2016, dated 2022).

Experiments:
[1] = test system: Common chickweed (STEME); experiment: pre-emergence test, weed control; assay type: in vivo, Stellaria media; conditions: pre-emergent, 28 DAT; BFL at 187.5 g, PYX at 90 g, combination of both
Experimental: (§1) Test compositions containing the test compounds were diluted with water to provide the appropriate test rate concentrations.
(§2) For pre-emergence testing, four disposable fiber flats (6 inch by 10 inch) for each rate of application of each herbicide solution were filled with top soil, to which seeds of each species were planted in furrows made by a template pressed on the top of the soil. The furrows were covered with soil after planting the seed and were watered well before application of the test compounds.
Fiber flats designated for treatment were placed in a spray chamber having a static platform and a movable sprayer and the height of the spray nozzle was 10.5 inches above the soil level. Once the sprayer was calibrated using water for spray volume of 30 gallons per acre, flats were sprayed with sprayer at a speed to receive a coverage equivalent of 30 gallons per acre. […]
The control of weeds was evaluated in each experimental test at 21 for wheat and 28 days after treatment (DAT) for all species. Data were analyzed using Minitab software at 95% confidence interval. […] Percent control was determined by a method similar to the 0 to 100 rating system disclosed in “Research Methods in Weed Science,” 2nd ed., B. Truelove, Ed.; Southern Weed Science Society; Auburn University, Auburn, Ala., 1977. […]

[2] = test system: Common lambsquarters (CHEAL); experiment: pre-emergence test, weed control; assay type: in vivo, Chenopodium album; conditions: pre-emergent, 28 DAT, (+)-BFL >95% e.e.; rate g ai/ha by row: r6 62.5, r7 125, r8 62.5, r9 125, r10 222, r11 445, r12 22.5, r13 45, r14 62.5+62.5, r15 125+62.5, r16 62.5+125, r17 125+125, r18 62.5+222, r19 125+222, r20 62.5+445, r21 125+445, r22 62.5+22.5, r23 125+22.5, r24 62.5+45, r25 125+45
Experimental: as §1, §2
(§3) Fiber flats designated for treatment were placed in a spray chamber having a static platform and a movable sprayer and the height of the spray nozzle was 10.5 inches above the soil level. Once the sprayer was calibrated using water for spray volume of 30 gallons per acre, flats were sprayed with sprayer at a speed to receive a coverage equivalent of 30 gallons per acre. The application rates are those shown in the Tables below for the individual herbicidal solutions and the herbicide compositions of this invention. The pre-emergence flats were immediately placed in the greenhouse and watered lightly after treatment. Thereafter they were regularly watered and fertilized for the duration of the test.
(§4) The control of weeds was evaluated in each experimental test at 21 for wheat and 28 days after treatment (DAT) for all species. Data were analyzed using Minitab software at 95% confidence interval. The results, shown as an average of the replications, were compared with results observed in untreated control flats in the same tests. Percent control was determined by a method similar to the 0 to 100 rating system disclosed in “Research Methods in Weed Science,” 2nd ed., B. Truelove, Ed.; Southern Weed Science Society; Auburn University, Auburn, Ala., 1977. The rating system is as follows in Table 1.

[3] = test system: Green foxtail (SETVI); experiment: pre-emergence test, weed control; assay type: in vivo, Setaria viridis; conditions: pre-emergent, 28 DAT
Experimental: as §1, §2, §3, §4

[4] = test system: Jimsonweed (DATST); experiment: pre-emergence test, weed control; assay type: in vivo, Datura stramonium; conditions: pre-emergent, 28 DAT; BFL at 187.5 g, PYX at 90 g, combination of both
Experimental: as §1, §2, §3, §4

[5] = test system: Wild oat (AVEFA); experiment: pre-emergence test, weed control; assay type: in vivo, Avena fatua; conditions: pre-emergent, 28 DAT
Experimental: as §1, §2, §3, §4

[6] = test system: Blackgrass (ALOMY); experiment: pre-emergence test, weed control; assay type: in vivo; conditions: pre-emergent, 28 DAT
Experimental: as §1, §2, §3, §4

[7] = test system: Cheat grass (BROSE); experiment: pre-emergence test, weed control; assay type: in vivo; conditions: pre-emergent, 28 DAT, (+)-BFL >95% e.e.; rate g ai/ha by row: r6 62.5, r7 125, r8 62.5, r9 125, r10 222, r11 445, r12 22.5, r13 45, r14 62.5+62.5, r15 125+62.5, r16 62.5+125, r17 125+125, r18 62.5+222, r19 125+222, r20 62.5+445, r21 125+445, r22 62.5+22.5, r23 125+22.5, r24 62.5+45, r25 125+45
Experimental: as §1, §2, §3, §4

[8] = test system: Hemp sesbania (SEHE8); experiment: pre-emergence test, weed control; assay type: in vivo; conditions: pre-emergent, 28 DAT; BFL at 187.5 g, PYX at 90 g, combination of both
Experimental: as §1, §2, §3, §4

[9] = test system: Yellow foxtail (SETLU); experiment: pre-emergence test, weed control; assay type: in vivo; conditions: pre-emergent, 28 DAT
Experimental: as §1, §2, §3, §4

[10] = test system: Palmer amaranth (AMAPA); experiment: pre-emergence test, weed control; assay type: in vivo, Amaranthus palmeri; conditions: pre-emergent, 28 DAT, (−)-BFL >95% e.e.; rate g ai/ha by row: r6 62, r7 125, r8 125, r9 250, r10 445, r11 890, r12 45, r13 90, r14 62+125, r15 125+125, r16 62+250, r17 125+250, r18 62+445, r19 125+445, r20 62+890, r21 125+890, r22 62+45, r23 125+45, r24 62+90, r25 125+90
Experimental: as §1, §2, §3, §4

[11] = test system: Green foxtail (SETVI); experiment: post-emergence test, weed control; assay type: in vivo, Setaria viridis; conditions: post-emergent, 28 DAT; BFL at 187.5 g, PYX at 90 g, combination of both
Experimental: as §1
(§5) For post-emergence testing, seeds of each species for each rate of application of each herbicide solution were planted in 7.5 cm×7.5 cm plastic pots filled with potting soil. The seeds were germinated and the resulting plants were allowed to grow in a greenhouse until they reached a growth stage, such as height, suitable for testing. Treatments were applied using compressed air in a track spray chamber at 30 gallons/acre (280 L/ha) using a TeeJet 8001E nozzle at 40 psi (2.76 bars). Pots of post-emergent treated plants were returned to the greenhouse and not watered for 24 hours after treatment. Thereafter they were regularly watered and fertilized for the duration of the test.
as §4

[12] = test system: Redrice (ORYSA); experiment: post-emergence test, weed control; assay type: in vivo; conditions: post-emergent, 28 DAT; BFL at 187.5 g, PYX at 90 g, combination of both
Experimental: as §1, §5, §4

[13] = test system: Wild oat (AVEFA); experiment: post-emergence test, weed control; assay type: in vivo, Avena fatua; conditions: post-emergent, 28 DAT; BFL at 187.5 g, PYX at 90 g, combination of both
Experimental: as §1, §5, §4

[14] = test system: Common chickweed (STEME); experiment: post-emergence test, weed control; assay type: in vivo, Stellaria media; conditions: post-emergent, 28 DAT; BFL at 187.5 g, PYX at 45 g, combination of both
Experimental: as §1
as §5, with “Treatments were applied using compressed air in a track spray chamber at 30 gallons/acre (280 L/ha) using a TeeJet 8001E nozzle at 40 psi (2.76 bars).” left out
The control of weeds was evaluated in each experimental test at 21 for wheat and 28 days after treatment (DAT) for all species. […] The rating system is as follows in Table 1.

[15] = (+)-BFL >95% e.e., rate g ai/ha by row: r6 62.5, r7 125, r8 62.5, r9 125, r10 222, r11 445, r12 22.5, r13 45, r14 62.5+62.5, r15 125+62.5, r16 62.5+125, r17 125+125, r18 62.5+222, r19 125+222, r20 62.5+445, r21 125+445, r22 62.5+22.5, r23 125+22.5, r24 62.5+45, r25 125+45, 22.5 g ai/ha
[16] = (+)-BFL >95% e.e., rate g ai/ha by row: r6 62.5, r7 125, r8 62.5, r9 125, r10 222, r11 445, r12 22.5, r13 45, r14 62.5+62.5, r15 125+62.5, r16 62.5+125, r17 125+125, r18 62.5+222, r19 125+222, r20 62.5+445, r21 125+445, r22 62.5+22.5, r23 125+22.5, r24 62.5+45, r25 125+45, 45 g ai/ha
[17] = (−)-BFL >95% e.e., rate g ai/ha by row: r6 62, r7 125, r8 125, r9 250, r10 445, r11 890, r12 45, r13 90, r14 62+125, r15 125+125, r16 62+250, r17 125+250, r18 62+445, r19 125+445, r20 62+890, r21 125+890, r22 62+45, r23 125+45, r24 62+90, r25 125+90
[18] = (−)-BFL >95% e.e., rate g ai/ha by row: r6 62, r7 125, r8 125, r9 250, r10 445, r11 890, r12 45, r13 90, r14 62+125, r15 125+125, r16 62+250, r17 125+250, r18 62+445, r19 125+445, r20 62+890, r21 125+890, r22 62+45, r23 125+45, r24 62+90, r25 125+90, 45 g ai/ha
[19] = (−)-BFL >95% e.e., rate g ai/ha by row: r6 62, r7 125, r8 125, r9 250, r10 445, r11 890, r12 45, r13 90, r14 62+125, r15 125+125, r16 62+250, r17 125+250, r18 62+445, r19 125+445, r20 62+890, r21 125+890, r22 62+45, r23 125+45, r24 62+90, r25 125+90, 90 g ai/ha

## Cn1nc(C(F)(F)F)c(CS(=O)(=O)C2=NOC(C)(C)C2)c1OC(F)F [PYX, Pyroxasulfone]
[1]
  control of common chickweed: 67%
[2]
  percentage of weed control, CHEAL: 100%
[3]; [15]
  percentage of weed control, SETVI: 97%
[3]; [16]
  percentage of weed control, SETVI: 99%
[3]; [17]
  percentage of weed control, SETVI: 99%
[4]
  control of jimsonweed: 72%
[5]; [15]
  percentage of weed control, AVEFA: 98%
[5]; [16]
  percentage of weed control, AVEFA: 96%
[5]; [18]
  percentage of weed control, AVEFA: 100%
[5]; [19]
  percentage of weed control, AVEFA: 99%
[6]; (+)-BFL >95% e.e., rate g ai/ha by row: r6 62.5, r7 125, r8 62.5, r9 125, r10 222, r11 445, r12 22.5, r13 45, r14 62.5+62.5, r15 125+62.5, r16 62.5+125, r17 125+125, r18 62.5+222, r19 125+222, r20 62.5+445, r21 125+445, r22 62.5+22.5, r23 125+22.5, r24 62.5+45, r25 125+45
  percentage of weed control, ALOMY: 100%
[6]; [18]
  percentage of weed control, ALOMY: 100%
[6]; [19]
  percentage of weed control, ALOMY: 99%
[7]
  percentage of weed control, BROSE: 100%
[8]
  control of hemp sesbania: 67%
[9]; [15]
  percentage of weed control, SETLU: 99%
[9]; [16]
  percentage of weed control, SETLU: 100%
[9]; [17]
  percentage of weed control, SETLU: 100%
[10]
  percentage of weed control, AMAPA: 100%
[11]
  control of green foxtail: 66%
[12]
  control of red rice: 39%
[13]
  control of wild oats: 48%
[14]
  control of common chickweed: 22%
